In patent US20260015352A1, “METHYLTRANSFERASE INHIBITOR AND USE THEREOF” (CYTOSINLAB THERAPEUTICS CO., LTD., priority 2022, published 2026) one finds IC50 data, which are given here for 33 molecules.

The IC50 is the point on the concentration scale where inhibition reaches its midpoint.

The test system of the experiment is G401 cells. The experiment can be described thus: G401 ELISA test. The experiment is classed as cell-based. Conditions: Homo sapiens, G-401; G401 cells treated with compounds for 72 hours; ELISA detecting K27 and H3; read-out: G401_ELISA IC50. The protocol: • Plate Reader: Envision (Perkinelmner); plate shaker: IKA MTS 2/4; plate Washer: BioTek microplate wisher 405 select; Cell counter: Counterstar (Ruiyu-biotech); Cell culture incubator: MCO-15AC (ThermoFisher); Pipette: BioHit Multichannel. Pipette: 0.2-10 μL, 10-300 μL, 50-1200 μL; Centrifuge: Thermo Centrifuge ST 40R; Pure water system: Millipore Milli-Q Reference system; Refrigerator: Haier −80 degree, −20 degree, and 4-degree refrigerators; cell cryopreservation box: Mr. Frosty™ Gradient Cooling Box Cat #5100-0001
• McCoys 5A (Modified) culture medium (ATCC); FBS (Gibco); 0.25% Trypsin/EDTA (Gibco); PBS (Hyclone); Penicillin/Streptomycin(100×) (Gibco); DMSO (Sigma); 384 cell culture plate (Corning); 384 detection plate (Greiner); 96 well plate (compound dilution) (Haimen, Qunchao); T75 Cell Culture Bottle (Corning)
G401 cells were seeded in a 384-well cell culture plate and incubated overnight at 37° C. in a 5% CO2 cell culture incubator, after which the cells were treated with compounds of different concentrations for 72 hours. The 384-well cell culture plate was taken out and upside down in a centrifuge to centrifugeat 300 rpm for 1 minute. After centrifugation, the 384-well cell culture plate was washed twice with PBS, added with lysis solution and lysed for 60 minutes. Then neutralization buffer was added for mixing and incubation was continued for 30 minutes. 20 ul (for detecting K27) and 10 ul (for detecting H3) of cell lysate were extracted from the 384-well cell culture plate and transferred to a 384 ELISA detection plate and incubate overnight at 4° C. The next day, the 384 ELISA plate was taken out and washed 5 times with TBST in a microplate washer. Then, the plate was added with a blocking solution and sealed at room temperature for 1 hour. The blocking solution was discarded and the primary antibody was added and then the plate was incubated at room temperature for 1 hour. After incubation, the plate was washed with TBST 5 times in a microplate washer, then added with secondary antibody and incubated at room temperature for 1 hour. After incubation, the plate was washed with TBST 5 times in a microplate washer, and finally added with color developer for color development. The plate was read with Envision plate reader. The obtained data was converted into inhibition rate using the following calculation method: % Inhibition rate=100−100*(compound absorbance−positive control absorbance)/(negative control absorbance−positive control absorbance), and then the inhibition rate data was subjected to curve fitting using the “logarithmic (inhibitor) and reaction-variable slope (four parameters)” model in GraphPad Prism 5 software.
The inhibition rate of the compound was calculated as follows: […]
The compounds of the present invention were tested according to the above experimental method, and some results were shown in Table 3. The test results were classified by A, B, and C, wherein A represents IC50≤0.1 uM; B represents 0.1 uM<IC50≤1 uM; C represents IC50>1 uM
As to `COc1nccc2ccc(Nc3ccc(CNc4ncc(CC(=O)N5CCC(O)C5)cn4)cc3F)nc12` (stereo not drawn) [PA232], the IC50 was 100 to 1000 nM. As for `COc1nccc2ccc(Nc3ccc([C@H](C)Nc4ccc(CC(=O)NC5COC5)cn4)cc3F)nc12` [PA233], the figure is 100 to 1000 nM; as for `COc1nccc2ccc(Nc3ccc(CNc4ncc(CNCc5cn[nH]c5)cn4)cc3F)nc12` [PA234], 100 to 1000 nM. Regarding `COc1nccc2ccc(Nc3ccc([C@H](C)Nc4ncc(CCN(C)C5CC(F)(F)C5)cn4)cc3F)nc12` [PA235], the IC50 was 100 to 1000 nM.

Turning to `COc1nccc2ccc(Nc3ccc(C(CO)Nc4ncc(CC(=O)NC5COC5)cn4)cc3F)nc12` (stereo not drawn) [PA236], the IC50 is 100 to 1000 nM. As for `COc1nccc2ccc(Nc3ccc([C@H](C)Nc4ccc(NC(=O)NC5COC5)cn4)cc3F)nc12` [PA238], the figure is 100 to 1000 nM; as for `COc1nccc2ccc(Nc3ccc(CNc4ncc(CNCc5cocn5)cn4)cc3F)nc12` [PA239], 100 to 1000 nM. As for `COc1nccc2ccc(Nc3ccc([C@H](C)Nc4ncc(CNCC5CC(F)(F)C5)cn4)cc3F)nc12` [PA240], the IC50 was 100 to 1000 nM.

Turning to `COc1nccc2ccc(Nc3ccc([C@H](C)Nc4c(F)cc(CNC5CS(=O)(=O)C5)cc4F)cc3F)nc12` [PA241], the IC50 was 100 to 1000 nM.

Regarding `COc1nccc2ccc(Nc3ccc(CNc4ncc(CNCCO)cn4)cc3F)nc12` [PA242], the IC50 was greater than 1000 nM.

As for `O=C(Cc1cnc(NCc2ccc(Nc3ccc4c(Cl)nccc4n3)cc2)nc1)NC1COC1` [PA243], the IC50 was greater than 1000 nM.

Regarding `COc1nccc2ccc(Nc3ccc(CNc4ncc(N5CCC(OC)C5)cn4)cc3F)nc12` (stereo not drawn) [PA244], the IC50 is greater than 1000 nM. On to `COc1nccc2ccc(Nc3ccc([C@H](C)Nc4ncc(CCc5cc(C(N)=O)n[nH]5)cn4)cc3F)nc12` [PA245], for which the IC50 was greater than 1000 nM. As to `COCCNCc1cnc(NCc2ccc(Nc3ccc4ccnc(OC)c4n3)c(F)c2)nc1` [PA247], the IC50 was greater than 1000 nM. For `COc1nccc2ccc(Nc3ccc(CNc4ncc(CNCc5cnn(C)c5)cn4)cc3F)nc12` [PA249] the value was greater than 1000 nM; for `O=C(Nc1ccc(NCC23CCC(Nc4ccc5ccnc(Cl)c5n4)(CC2)CC3)nc1)NC1COC1` [PA250], greater than 1000 nM; for `COc1nccc2ccc(Nc3ccc(CNc4ncc(CC(=O)N5CC6(COC6)C5)cn4)cc3F)nc12` [PA251], greater than 1000 nM. Consider `COc1nccc2ccc(Nc3ccc(CNc4ncc(CNCC5CCOCC5)cn4)cc3F)nc12` [PA252], for which the IC50 is greater than 1000 nM. For `COc1nccn2cc(Nc3ccc(CNc4ncc(CC(=O)NC5COC5)cn4)cc3)nc12` [PA253] the value was greater than 1000 nM; for `COc1nccc2cnc(Nc3ccc(CNc4ncc(CC(=O)NC5COC5)cn4)cc3)nc12` [PA254], greater than 1000 nM. For `Cn1ccc2ccc(Nc3ccc(CNc4ncc(CC(=O)NC5COC5)cn4)cc3)nc2c1=O` [PA255] the value was greater than 1000 nM. For `COc1nccc2ccc(Nc3ccc([C@@H](CO)Nc4ncc(CC(=O)NC5COC5)cn4)cc3F)nc12` [PA256] the value was greater than 1000 nM. Turning to `C[C@H](Nc1ncc(C(NC2CS(=O)(=O)C2)C(=O)OC(C)(C)C)cn1)C12CCC(Nc3ccc4ccnc(Cl)c4n3)(CC1)CC2` (stereo partly drawn) [PA257], the IC50 is no more than 100 nM.

Take `COc1nccc2ccc(Nc3ccc(CNc4ncc(CNCc5ccno5)cn4)cc3F)nc12` [PA258]: the IC50 is no more than 100 nM.

Consider `COc1nccc2ccc(Nc3ccc(CNc4ncc(CN5CCS(=O)(=O)CC5)cn4)cc3F)nc12` [PA259], for which the IC50 was no more than 100 nM. Consider `COc1nccc2ccc(Nc3ccc([C@H](C)Nc4ncc(CNCCS(C)(=O)=O)cn4)cc3F)nc12` [PA260], for which the IC50 is no more than 100 nM. For the molecule `COc1nccc2ccc(Nc3ccc([C@H](C)Nc4ncc(CNC5CCS(=O)(=O)CC5)cn4)cc3F)nc12` [PA261], the IC50 is no more than 100 nM.

`COc1nccc2ccc(Nc3ccc([C@H](C)Nc4ncc(C(C)C5CCS(=O)(=O)CC5)cn4)cc3F)nc12` (stereo partly drawn) [PA262]: the IC50 is no more than 100 nM.

As for `O=C(Cc1cnc(NCC23CCC(Nc4ccc5cccc(Cl)c5n4)(CC2)CC3)nc1)NC1COC1` [PA263], the IC50 was no more than 100 nM. For the molecule `O=C(Cc1cnc(NC(CO)C23CCC(Nc4ccc5ccnc(Cl)c5n4)(CC2)CC3)nc1)NC1COC1` (stereo not drawn) [PA264], the IC50 is no more than 100 nM. As for `Cc1ccc2ccc(Nc3ccc([C@H](C)Nc4ncc(CN(CCO)C5CS(=O)(=O)C5)cn4)cc3F)nc2c1Cl` [PA266], the figure is no more than 100 nM; as for `CCN(Cc1cnc(N[C@@H](C)c2ccc(Nc3ccc4ccc(C)c(Cl)c4n3)c(F)c2)nc1)C1CS(=O)(=O)C1` [PA267], no more than 100 nM; as for `Cc1ccc2ccc(Nc3ccc([C@H](C)Nc4ncc(CN(CC(=O)O)C5CS(=O)(=O)C5)cn4)cc3F)nc2c1Cl` [PA268], no more than 100 nM.
